Consider three compounds from patent US20160185745A1, “ANALOGS OF VINAXANTHONE AND XANTHOFULVIN, METHODS OF SYNTHESIS, AND METHODS OF TREATMENTS THEREOF” (BOARD OF REGENTS, THE UNIVERSITY OF TEXAS SYSTEM, priority 2013, published 2016).

Series [1] has as its system GFP-labeled cholinergic neurons. Briefly: outgrowth of GFP-labeled cholinergic neurons in vivo in C. elegans. Conditions: for outgrowth activity of GFP-labeled cholinergic neurons: control 0.2% DMSO in M9 buffer, compared with dibutyryl cAMP. On the procedure: (§1) Control: 0.2% DMSO in M9 buffer. […] Additionally, several analogs were prepared and their biological activity was measured.

A further series addresses T1, SUCNR1 (Homo sapiens, UniProt Q9BXA5).
T1 sequence (Q9BXA5 1-334): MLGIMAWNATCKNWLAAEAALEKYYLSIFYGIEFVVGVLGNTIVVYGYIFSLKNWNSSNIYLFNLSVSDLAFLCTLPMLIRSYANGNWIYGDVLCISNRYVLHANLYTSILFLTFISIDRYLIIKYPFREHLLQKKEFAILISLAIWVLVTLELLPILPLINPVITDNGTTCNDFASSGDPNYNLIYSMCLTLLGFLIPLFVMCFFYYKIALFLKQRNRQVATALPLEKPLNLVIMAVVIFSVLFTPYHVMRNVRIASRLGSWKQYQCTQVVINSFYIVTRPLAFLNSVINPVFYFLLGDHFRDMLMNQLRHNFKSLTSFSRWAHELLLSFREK
Nature of the series: modulation of SUCNR1 when administered with sodium succinate. Type of series: cell-based. Conditions: compared to sodium succinate alone. On the procedure: The values are compared to 100% activation by sodium succinate.
as §1

The target of another series is T2, semaphorin 3A (Sema3A) (Homo sapiens, UniProt Q14563).
T2 sequence (Q14563 21-771): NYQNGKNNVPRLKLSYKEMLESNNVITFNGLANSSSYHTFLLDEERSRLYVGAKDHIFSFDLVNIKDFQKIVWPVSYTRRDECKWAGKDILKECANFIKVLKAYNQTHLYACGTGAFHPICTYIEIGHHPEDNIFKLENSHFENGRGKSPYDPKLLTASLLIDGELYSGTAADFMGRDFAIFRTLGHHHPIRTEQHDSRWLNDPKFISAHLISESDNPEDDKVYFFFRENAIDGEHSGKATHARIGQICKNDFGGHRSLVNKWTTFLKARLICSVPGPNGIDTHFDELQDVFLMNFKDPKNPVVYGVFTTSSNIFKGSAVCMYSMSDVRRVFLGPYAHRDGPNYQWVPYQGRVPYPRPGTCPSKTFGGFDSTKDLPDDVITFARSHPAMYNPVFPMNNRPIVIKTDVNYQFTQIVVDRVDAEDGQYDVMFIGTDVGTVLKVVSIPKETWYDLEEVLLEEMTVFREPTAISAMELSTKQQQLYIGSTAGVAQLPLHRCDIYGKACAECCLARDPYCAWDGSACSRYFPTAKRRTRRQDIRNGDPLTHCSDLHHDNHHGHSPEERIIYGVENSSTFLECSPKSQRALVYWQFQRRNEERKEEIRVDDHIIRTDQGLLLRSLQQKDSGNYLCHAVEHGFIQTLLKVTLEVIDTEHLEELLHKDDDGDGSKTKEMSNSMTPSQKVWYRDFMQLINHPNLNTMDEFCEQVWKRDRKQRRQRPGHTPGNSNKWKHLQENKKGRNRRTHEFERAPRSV
Conditions: read-out: Sema3A inhibitory activity IC50 (converted); cited from earlier work.

For series [2] the following is noted: at concentrations >1000 times the effective dose; cited from earlier work.

With `CCCC(=O)Nc1ncnc2c1ncn2[C@@H]1O[C@@H]2COP(=O)(O)O[C@H]2[C@H]1OC(=O)CCC` [dibutyryl cAMP, reference compound], the “promotes branching in % of animals” value in series [1] (at 2 mM) turned out to be 36%.
Turning to `CC(=O)c1cc2c(=O)c3c(C(=O)O)c(O)c(O)cc3oc2c(C(C)=O)c1-c1coc2cc(O)c(O)c(C(=O)O)c2c1=O` [vinaxanthone, 5,7-diacetyl-6-(5-carboxy-6,7-dihydroxy-4-oxo-4H-chromen-3-yl)-2,3-dihydroxy-9-oxo-9H-xanthene-1-carboxylic acid], the “outgrowth activity of GFP-labeled cholinergic neurons” value in series [1] was “comparable to dibutyryl cAMP”. Moreover, at SUCNR1, the Dose ratio is listed as 0.33 and the efficacy value worked out at 230%. Also, at semaphorin 3A (Sema3A), the IC50 is 0.173 µM. The cytotoxicity effects result in series [2] was “no observable cytotoxicity effects”.
`CC(=O)c1c(C)c(/C(O)=C2\COc3cc(O)c(O)c(C(=O)O)c3C2=O)cc2c(=O)c3c(C(=O)O)c(O)c(O)cc3oc12` [xanthofulvin]: in series [1], the “outgrowth activity of GFP-labeled cholinergic neurons” value was “comparable to dibutyryl cAMP”. Besides, at SUCNR1, the Dose ratio is 0.32 and the efficacy value came to 222%.
